Measured values as given in patent EP0874818B1, “NOVEL SUBSTITUTED ARYL COMPOUNDS USEFUL AS MODULATORS OF ACETYLCHOLINE RECEPTORS” (priority 1995, dated 1997).
Like-named read-outs stand apart in the source and are kept apart here.

Experiments:
[1] = target: muscarinic acetylcholine receptors; experiment: 3H-QNB (quinuclidinyl benzilate) displacement, rat cerebral membranes; format: binding; conditions: read-out: Displacement of Radiolabeled Liqands IC50 Quinuc Benz
rat striatal slices = experiment: 3H-dopamine release from rat striatal slices (superfusion); format: cell-based; conditions: read-out: % of Nicotine Response 3H-DA Striatum
Method: Measurement of ^3H-dopamine (^3H-DA) release from rat striatal slices was performed according to the method of Sacaan et al., (J. Pharmacol. Comp. Ther 224:224-230 (1995)). Male Sprague-Dawley rats (250-300 g) were decapitated and the striata or olfactory tubercles dissected quickly on a cold glass surface. The tissue was chopped to a thickness of 300 µm with a McIlwain tissue chopper. After chopping again at right angles the tissue was dispersed and incubated for 10 min. at 37°C in oxygenated Kreb's buffer. ^3H-Dopamine (40 Ci/mmol, NEN-Dupont, Boston, Ma) was added (50 nM) and the tissue was incubated for 30 min. in Kreb's buffer containing 10 µM pargyline and 0.5 mM ascorbic acid. Aliquots of the minced tissue were then transferred to chambers of a Brandel Superfusion system in which the tissue was supported on Whatman GF/B filter discs. The tissue was then superfused with buffer at a constant flow rate of 0.3 ml/min by means of a Brandel peristaltic pump. The perfusate was collected in plastic scintillation vials in 3-min fractions, and the radioactivity was estimated by scintillation spectrophotometry. The superfusate for the first 120 min was discarded. […] At the end of the experiment the filter and the tissue were removed, and the radiolabeled neurotransmitter content was estimated after extraction into scintillation fluid. The fractional efflux of radiolabeled neurotransmitter was estimated as the amount of radioactivity in the perfusate fraction relative to the total amount in the tissue.
The results presented in the Table are expressed as the percent fractional release.

rat hippocampus = experiment: tissue or blood; format: cell-based; conditions: read-out: % of Nicotine Response 3H-NE Hippocampus
[2] = test system: acetylcholine release in the hippocampus; format: in vivo, Male Sprague Dawley Rats
Source text: Male Sprague Dawley Rats (230-290 g) were anesthetized in a chamber saturated with isofluorane. Once immobilized, the rats were mounted in a Kopf stereotaxic apparatus with the incisor bar set at -3.3 mm (Praxinos and Watson, 1986). A midline incision was made on the skull to expose the underlying fascia. The skull was cleaned with an antibacterial preparation containing iodine and a hole was made in the skull at the following coordinates: AP, -3.5 mm and ML, +2.0 mm (Praxinos and Watson, 1986). A stainless steel guide cannula (Small Parts, Inc., Stillwater, FL) was cut to 2.0 mm length and inserted into the hole. Three additional holes were drilled into the skull surrounding the guide cannula and small machine screws were placed into these holes. The guide cannula and screws were secured by dental cement. A dummy cannula was inserted into the guide cannula to prevent clogging. The animals were removed from the stereotaxic frame and single housed for 3-7 days with free access to food and water.
On the day of the experiment, the rats were briefly anesthetized with isofluorane and the dummy cannulae were removed. A microdialysis cannula containing a Loop type probe with a rigid shaft and molecular weight cut-off of 6000 (ESA Inc, Chelmsfold, MA) of approximately 2 mm in length, was inserted into the guide cannula. Under these conditions, the microdialysis probe extended 2 mm beneath the guide cannula. The animal was placed in plastic bowl (CMA 120; CMA Microdialysis, Acton, MA, USA) with a harness around the neck. The microdialysis probe was connected to a syringe pump through which a salt solution representing the ionic concentration of the cerebrospinal fluid (artificial CSF; 145 mM NaCl; […]; […] and […]; pH 7.4; Moghaddam and Bunney, J. Neurochem, 53, 652-654, 1989) containing 100 nM neostigmine was pumped at a rate of 1.5 µL/min.
Twenty minute fractions were collected and automatically injected via a sample loop and an auto-injector. The on-line microdialysis comprised of the following components: a CMA/100 microsyringe pump connected to a CMA/111 syringe selector. The mobile phase (100 mM disodium hydrogen phosphate; 2.0 mM 1-octane sulfonic acid sodium salt; 0.005% reagent MB (ESA Inc., Chelmeford, MA) pH 8.00 with phosphoric acid) was pumped using a model 580 ESA pump through a polymeric reverse phase column (ACH-3, ESA Inc., […]; 3.2 mmx 15 cm). The effluent from the column was passed through an enzyme reactor containing immobilized acetylcholinesterase and choline oxidase (ACH-SPR, ESA Inc.). The HPLC column and the enzyme reactor were placed in a housing with a constant temperature of 35°C. Acetylcholine and choline in microdialysis samples were converted into hydrogen peroxide which was detected by amperometric oxidation in a ESA model 5041 analytical cell containing a glassy carbon target electrode and a palladium reference electrode. The oxidation potential was 250 mV and the signal was detected by a ESA model 5200 A Coulochem detector. The retention times for choline and acetylcholine under these conditions were 4 and 6 min, respectively. The limit of detection for acetylcholine was less than 100 fmol on column.
On the day of the experiment, 10-12 fractions were collected to establish the baseline acetylcholine release. Following the establishment of baseline, rats were injected with the test compound and samples were collected until the levels of acetylcholine in the dialysate samples returned to baseline levels (3-5 hr). Compounds were typically dissolved in saline and the pH of the solution was adjusted by the addition of NaOH.

[3] = 60 pM 3H-QNB, rat cerebral membranes, no atropine
[4] = compound tested at 300 µM, relative to nicotine 10µM
[5] = hippocampal acetylcholine, rat microdialysis, nicotine 0.4 mg/kg, lobeline 5.0 mg/kg, first Formula Z compound 40 mg/kg, other doses not given

With `CN1CCC[C@H]1COC(=O)CCc1ccccc1` [1-Methyl-2-pyrrolidinemethyl 3-phenylpropionate] the IC50 [1, 3] was 1120 nM.
`COc1ccc(SCCC2CCCN2C)cc1F` (stereo not drawn) [2-[2-(3-Fluoro-4-methoxyphenyl)thioethyl]-1-methylpyrrolidine] gave an Emax at 300 µM (rat striatal slices; [4]) of 21% and an IC50 [1, 3] of 2900 nM.
`CN1CCCC1CCSc1ccc(O)cc1` (stereo not drawn) [2-[2-(4-Hydroxyphenyl)thioethyl]-1-methylpyrrolidine] was tested, and the Emax at 300 µM (rat hippocampus) was 32%, the Emax at 300 µM (rat striatal slices) was 453% and the IC50 [1] was 1850 nM. The “Duration of Increase Above Baseline” value [2, 5] was 200 min and the “Peak Increase, % of Baseline” value [2, 5] was 2,000 % of Baseline.
For `CNC1(C)C2CCC(C2)C1(C)C` (stereo not drawn) [mecamylamine], the “attenuation of acetylcholine release induced by compound of Formula Z (A = 4-hydroxyphenyl, B = not present, D = -S-, E = -CH2CH2-, G = 1-methylpyrrolidino)” value ([2]; rat hippocampus microdialysis, Figure 5) was “attenuation of acetylcholine release”.
`CN1CCC[C@H]1COC(=O)CCc1ccc(O)cc1` [1-Methvl-2-pyrrolidinemethyl 3-(4-hydroxyphenyl)propionate] gave an IC50 [1, 3] of over 10000 nM.
`CN1CCCC1CCSc1ccc(O)cc1Cl` (stereo not drawn) [2-[2-(2-Chloro-4-hydroxyphenyl)thioethyl]-1-methylpyrrolidine] gave an Emax at 300 µM (rat striatal slices; [4]) of 800% and an IC50 [1, 3] of 3300 nM.
In the case of `CN1CCCC1c1cccnc1` (stereo not drawn) [Nicotine, reference compound], the Emax at 300 µM (rat hippocampus) is reported as 100%, the Emax at 10 µM (rat striatal slices) is reported as 100% and the “Duration of Increase Above Baseline” value ([2]; rat, in vivo) is reported as 200 min. The “Peak Increase, % of Baseline” value ([2]; rat, in vivo) was 220 % of Baseline.
In the case of `CN1[C@@H](CC(=O)c2ccccc2)CCC[C@H]1C[C@H](O)c1ccccc1` [Lobeline], the “Duration of Increase Above Baseline” value [2, 5] is reported as 200 min and the “Peak Increase, % of Baseline” value [2, 5] is reported as 400 % of Baseline.
